In US9795626B2, “Cancer therapy using miRNAs” (THE UNIVERSITY OF WESTERN AUSTRALIA, priority 2012, dated 2017):
Where “and” joins values, the source holds several entries; their conditions need not be identical. Equal values may be shown once.

Legend:
[1] = tested on: breast cancer cell line MCF-7; experiment: Drug sensitivity assay (cell viability after 4 days of drug); assay type: cell-based; conditions: MCF-7 (positive control)
Akt = experiment: IGF-1-induced activation of Akt signaling under NVP-AEW541 (data not shown); assay type: cell-based
MM96L melanoma cells = experiment: Cell viability assay (MTS) after miRNA transfection, with or without drug; Bliss synergy analysis
Method: (§5) Cells were seeded in 96-well plates at a density of 2.5×10^3 cells per well and transfected with miRNA precursor molecules as above. Cell viability was measured 5 days after transfection using CellTitre 96 Aqueous One Solution Cell Proliferation Assay Kit (MTS assay) and a FLUOstar OPTIMA microplate reader. For synergy analysis between drugs and miR-7-5p, cells were plated as above and drug or DMSO was added 3 days after transfection with miR-7-5p or miR-NC for 4 days, at which time cell viability was measured (7 days after transfection).
(§6) Statistical significance was calculated using Student's t test (one-tailed, unpaired) and the level of significance was set at p<0.05. Drug sensitivity (IC50) was calculated using GraphPad Software (GraphPad Prism, version 5.04). The Bliss additivism model was used for synergy analysis. […] Here, Ebliss is the fractional inhibition expected if the combination of miR-7-5p and drug B was exactly additive. If the experimentally measured fractional inhibition is greater than Ebliss, the combination is synergistic.

[2] = tested on: melanoma cell lines (SK-MEL-28, WM266-4, MM96L and A2058); experiment: Drug sensitivity assay (cell viability after 4 days of drug); assay type: cell-based; conditions: range over the melanoma cell lines
A2058 melanoma cells [3] = experiment: Cell viability assay (MTS) after miRNA transfection, with or without drug; Bliss synergy analysis; conditions: for EObs/EBliss: >1 = synergistic; for EBliss: fractional inhibition expected if exactly additive; for EObs: observed fractional inhibition of the combination; for cell viability, combination of miR-7-5p and drug compared to miR-NC: miR-7-5p 5 nM, suboptimal dose of drug (below the IC50) added 3 days post-transfection, 4 further days; for synergy of combination with miR-7-5p (Bliss additivism model): observed fractional inhibition greater than calculated additive inhibition
Method: as §5, §6

ERK 1/2 = experiment: IGF-1-induced activation of ERK 1/2 signaling under NVP-AEW541 (data not shown); assay type: cell-based
WM266-4 melanoma cells [4] = experiment: Cell viability assay (MTS) after miRNA transfection, with or without drug; Bliss synergy analysis
Method: as §5, §6

SK-MEL-28 melanoma cells = experiment: as above; conditions: for EObs/EBliss: >1 = synergistic; for EBliss: fractional inhibition expected if exactly additive; for EObs: observed fractional inhibition of the combination
Method: as §5, §6

1205Lu melanoma cells [5] = experiment: xCELLigence real-time cell invasion assay (Matrigel); assay type: cell-based; conditions: further study, 20-25 hour period
Description: (§1) Cell migration and invasion was monitored with a Real-Time Cell Analyser dual-plate (RTCA DP) xCELLigence System (Roche Applied Science; Mannheim, Germany). This instrument employs cellular migration plates (CIM-plate 16) which contain microelectronic sensors on the underside of an 8 μm microporous polyethylene terephthalate (PET) membrane of a Boyden-like upper chamber and a lower chamber containing media or chemoattractant. As cells migrate or invade from the upper chamber to the lower chamber they interact with the sensors causing an increase in electrical impedance. Changes in cell impedance over time relates to a change in the number of cells interacting with the sensors, allowing real-time measurement of cell migration as a cell index value. […] After 48 h incubation cells were trypsinised, resuspended in serum free media and seeded into the upper chamber of CIM-plates. The lower chambers were filled with media containing 10% FBS (chemoattractant) or serum free media as a control. Migration was monitored over a 24 hour period with impedance measurements every 15 min. For invasion assays, the CIM-plates were coated with Matrigel (BD Biosciences; diluted at a ratio of 1:20 in serum free medium) approximately 4 hours prior to seeding cells.

A375 melanoma cells [6] = experiment: as above; assay type: cell-based; conditions: further study, 20-25 hour period
Description: as §1

A2058 melanoma cells [7] = experiment: as above; assay type: cell-based; conditions: further study, 20-25 hour period
Description: as §1

WM266-4 melanoma cells [8] = experiment: as above; assay type: cell-based; conditions: further study, 20-25 hour period
Description: as §1

1205Lu melanoma cells [9] = experiment: xCELLigence real-time cell migration assay; assay type: cell-based; conditions: further study, 20-25 hour period
Description: as §1

A375 melanoma cells [10] = experiment: xCELLigence real-time cell migration assay; assay type: cell-based; conditions: further study, 20-25 hour period
Description: as §1

A2058 melanoma cells [11] = experiment: xCELLigence real-time cell migration assay; assay type: cell-based
Description: as §1

WM266-4 melanoma cells [12] = experiment: xCELLigence real-time cell migration assay; assay type: cell-based
Description: as §1

IRS-2 mRNA = experiment: RT-qPCR of IRS-2 mRNA after transfection; assay type: cell-based; conditions: WM266-4 and A2058; 24 hours after transfection, normalised to GAPDH, vs miR-NC
Method: (§2) Optimal cell numbers were transfected using Lipofectamine 2000 (Invitrogen) with miR-7-5p (SEQ ID NO: 1; synthesised by Ambion) or miR-NC precursor molecules (hereinafter “miR-NC”; Ambion AM17110) at final concentrations ranging from 1-30 nM. For siRNA transfections, Silencer Select siRNAs (Invitrogen) Negative Control No. 1 (si-NC; 4390843), si-IRS-2 #1 (s16486), si-IRS-2 #2 (s16487) were transfected using Lipofectamine 2000 (Invitrogen) according to the manufacturer's protocol. Cells were harvested 24 hours later for RNA or 2-3 days after transfection for protein extraction.

PAK1 = experiment: Immunoblotting after transfection of melanoma cells; assay type: cell-based
Method: as §2
(§3) Protein was harvested with Cytoplasmic Extract Buffer (CEB)-containing PhosSTOP phosphatase inhibitors (Roche; New South Wales, Australia) and Complete EDTA-free protease inhibitors (Roche). Cell lysates were frozen at −80° C. overnight, cleared by centrifugation at 13,000×g for 5 min, and supernatants collected. Total protein concentrations were determined by Bio-Rad protein assay (Bio-Rad; New South Wales, Australia) as per manufacturer's instructions and using a FLUOstar OPTIMA microplate reader.
(§4) Fifteen μg of total protein samples were resolved on NuPAGE NO VEX 4-12% Bis-Tris gels (Invitrogen) and transferred to polyvinylidene fluoride (PVDF) western blotting membranes (Roche). The blots were blocked for 1 hour with Odyssey Blocking Buffer (Millennium Science, Victoria, Australia) and incubated overnight at 4° C. with anti-IGF1R, anti-phospho-IGF1R, anti-IRS-1, anti-IRS-2, anti-phospo-IRS-2, anti-ERK 1/2, anti-phospho-ERK 1/2, anti-Akt, anti-phospho-Akt (Ser-473), anti-PAK1 (all from Cell Signaling Technology, Beverly, Mass.), or anti-FAK (Santa Cruz Biotechnology), anti-phospho-IRS-2 (Ser-731; Abeam, Cambridge, Mass.), or anti-β-actin (Abcam), followed by incubation with infrared-conjugated secondary antibodies for 1 hour at room temperature. The membranes were scanned with an Odyssey SA scanner to visualize protein expression (LICOR Biosciences, Lincoln, Nebr.).

IRS-2 = experiment: as above; assay type: cell-based
Method: as §2, §3, §4

P-IRS-2 = experiment: as above; assay type: cell-based
Method: as §2, §3, §4

P-Akt = experiment: as above; assay type: cell-based; conditions: SK-MEL-28, WM266-4 and MM96L; 15 nM, 3 days post-transfection
Method: as §2, §3, §4

IGF1R = experiment: as above; assay type: cell-based; conditions: melanoma cell lines; 15 nM, 3 days post-transfection, vs miR-NC
Method: as §2, §3, §4

P-IGF1R = experiment: as above; assay type: cell-based; conditions: 15 nM, 3 days post-transfection
Method: as §2, §3, §4

P-ERK 1/2 = experiment: as above; assay type: cell-based; conditions: A2058; 15 nM, 3 days post-transfection
Method: as §2, §3, §4

IRS-1 = experiment: as above; assay type: cell-based; conditions: 15 nM, 3 days post-transfection
Method: as §2, §3, §4

FAK = experiment: as above; assay type: cell-based; conditions: WM266-4 and A2058; 30 nM, protein harvested at time of migration assay (48 hours)
Method: as §2, §3, §4

melanoma cell lines = experiment: Cell viability assay (MTS) after miRNA transfection; assay type: cell-based; conditions: melanoma cells
Method: Cells were seeded in 96-well plates at a density of 2.5×10^3 cells per well and transfected with miRNA precursor molecules as above. Cell viability was measured 5 days after transfection using CellTitre 96 Aqueous One Solution Cell Proliferation Assay Kit (MTS assay) and a FLUOstar OPTIMA microplate reader.

[13] = [miR-7-5p] 5 nM + [drug] 5 μM, >1 = synergistic
[14] = [miR-7-5p] 5 nM + [drug] 5 μM, fractional inhibition expected if exactly additive
[15] = [miR-7-5p] 5 nM + [drug] 5 μM, observed fractional inhibition of the combination
[16] = [miR-7-5p] 5 nM + [drug] 100 nM
[17] = further study, 20-25 hour period
[18] = MTS assay 5 days post-transfection
[19] = WM266-4 and A2058, 30 nM, protein harvested at time of migration assay (48 hours)
[20] = WM266-4 and A2058, 72 hours after transfection, vs miR-NC

For `Nc1ncnc2c1c(-c1cccc(OCc3ccccc3)c1)cn2C1CC(CN2CCC2)C1` (stereo not shown) [NVP-AEW541], the IC50 [1] was 1500 nM, the “IGF-1-induced activation of Akt signaling pathway” value (Akt; MCF-7 breast cancer cells) was “attenuated” and the “Akt activity (IGF-1-induced)” value (Akt; melanoma cell lines) was “abrogated”. It also gave an EObs/EBliss (MM96L melanoma cells; [13]) of 1.06, an EBliss (MM96L melanoma cells; [14]) of 0.515 and an EObs (MM96L melanoma cells; [15]) of 0.547. For the same compound, the IC50 [2] was 8270 to 25000 nM, the EObs/EBliss (A2058 melanoma cells [3]; [miR-7-5p] 5 nM + [drug] 5 μM) was 1.10 and 1.20 and the EBliss (A2058 melanoma cells [3]; [miR-7-5p] 5 nM + [drug] 5 μM) was 0.769 and 0.720. For the same compound, the EObs (A2058 melanoma cells [3]; [miR-7-5p] 5 nM + [drug] 5 μM) was 0.846 and 0.866, the “cell viability, combination of miR-7-5p and drug compared to miR-NC” value (A2058 melanoma cells [3]) was “significant reduction” and the “synergy of combination with miR-7-5p (Bliss additivism model)” value (A2058 melanoma cells [3]) was “synergistic”. The “IGF-1-induced activation of ERK 1/2 signaling pathway” value (ERK 1/2; MCF-7 breast cancer cells) was “attenuated”, the “ERK 1/2 activity (IGF-1-induced)” value (ERK 1/2; melanoma cell lines) was “persistence of ERK 1/2 activity” and the EObs/EBliss (WM266-4 melanoma cells [4]; [13]) was 1.06. For the same compound, the EBliss (WM266-4 melanoma cells [4]; [14]) was 0.715, the EObs (WM266-4 melanoma cells [4]; [15]) was 0.757 and the EObs/EBliss (SK-MEL-28 melanoma cells; [miR-7-5p] 5 nM + [drug] 5 μM) was 1.24 and 1.17. The EBliss (SK-MEL-28 melanoma cells; [miR-7-5p] 5 nM + [drug] 5 μM) was 0.474 and 0.265 and the EObs (SK-MEL-28 melanoma cells; [miR-7-5p] 5 nM + [drug] 5 μM) was 0.588 and 0.309.

`COc1cc([C@@H]2c3cc4c(cc3[C@H](O)[C@H]3COC(=O)[C@@H]23)OCO4)cc(OC)c1OC` [PPP, picropodophyllin] was tested, and the IC50 ([2]; 96 h) was 150 to 300 nM, the EObs/EBliss (A2058 melanoma cells [3]; [16]) was 1.48 and 1.03 and 1.18 and the EBliss (A2058 melanoma cells [3]; [16]) was 0.447 and 0.684 and 0.420. The EObs (A2058 melanoma cells [3]; [16]) was 0.663 and 0.704 and 0.496, the “cell viability, combination of miR-7-5p and drug compared to miR-NC” value (A2058 melanoma cells [3]) was “significant reduction” and the “synergy of combination with miR-7-5p (Bliss additivism model)” value (A2058 melanoma cells [3]) was “synergistic”. For the same compound, the EObs/EBliss (SK-MEL-28 melanoma cells; [16]) was 1.80 and 1.30, the EBliss (SK-MEL-28 melanoma cells; [16]) was 0.292 and 0.391 and the EObs (SK-MEL-28 melanoma cells; [16]) was 0.526 and 0.508.

In the case of “miR-7-5p: Synthetic miRNA precursor molecules corresponding to human miR-7-5p (Ambion, PM10047); SEQ ID NO: 1 (UGGAAGACUAGUGAUUUUGUUGU; synthetic precursor duplex form, further chemistry not given here; listed as Homo sapiens)”, the “rate of cell invasion compared with miR-NC” value (1205Lu melanoma cells [5]) is reported as “significantly reduced, or even blocked”, the “rate of cell invasion compared with miR-NC” value (A375 melanoma cells [6]) is reported as “significantly reduced, or even blocked” and the “rate of cell invasion compared with miR-NC” value (A2058 melanoma cells [7]) is reported as “significantly reduced, or even blocked”. The “rate of cell invasion compared with miR-NC” value (WM266-4 melanoma cells [8]) was “significantly reduced, or even blocked”, the “rate of cell migration compared with miR-NC” value (1205Lu melanoma cells [9]) was “significantly reduced, or even blocked” and the “rate of cell migration compared with miR-NC” value (A375 melanoma cells [10]) was “significantly reduced, or even blocked”. The “cell migration compared with miR-NC” value (A2058 melanoma cells [11]; 30 nM, seeded 48 hours after transfection, monitored 24 hours) was “significantly inhibited”, the “rate of cell migration compared with miR-NC” value (A2058 melanoma cells [11]; [17]) was “significantly reduced, or even blocked” and the “cell migration compared with miR-NC” value (WM266-4 melanoma cells [12]; 30 nM, seeded 48 hours after transfection, monitored 24 hours, data not shown) was “significantly inhibited”. For the same compound, the “rate of cell migration compared with miR-NC” value (WM266-4 melanoma cells [12]; [17]) was “significantly reduced, or even blocked”, the “cell viability compared with miR-NC” value (MM96L melanoma cells; [18]) was “significantly reduced” and the “levels of IRS-2 mRNA” value (IRS-2 mRNA) was “significantly decreased”. For the same compound, the “cell viability compared with miR-NC” value (A2058 melanoma cells [3]; [18]) was “significantly reduced”, the “cell viability compared with miR-NC” value (WM266-4 melanoma cells [4]; MTS assay, data not shown) was “significantly reduced” and the “cell viability compared with miR-NC” value (SK-MEL-28 melanoma cells; MTS assay, data not shown) was “significantly reduced”. The “protein level of PAK1” value (PAK1; SK-MEL-28, WM266-4, MM96L and A2058, 15 nM, 3 days post-transfection, vs miR-NC) was “reductions”, the PAK1 expression (PAK1; [19]) was “reduction” and the IRS-2 expression (IRS-2; A2058, 15 nM, 3 days post-transfection) was “reduced”. The IRS-2 expression (IRS-2; [19]) was “reduction”, the “expression of IRS-2 protein” value (IRS-2; [20]) was “reduced” and the IRS-2 phosphorylation (P-IRS-2; SK-MEL-28, 15 nM, 3 days post-transfection) was “reduced”. For the same compound, the “active form of IRS-2 (P-IRS-2)” value (P-IRS-2; [20]) was “reduced”, the P-Akt (P-Akt) was “downregulated” and the IGF1R expression (IGF1R) was “No change”. For the same compound, the IGF1R phosphorylation (P-IGF1R; A2058) was “decreased”, the IGF1R phosphorylation (P-IGF1R; MM96L) was “increased” and the IGF1R phosphorylation (P-IGF1R; SK-MEL-28) was “did not change”. For the same compound, the “P-ERK 1/2” value (P-ERK 1/2) was “downregulated”, the IRS-1 expression (IRS-1; A2058) was “decrease” and the IRS-1 expression (IRS-1; SK-MEL-28 and WM266-4) was “modest increase”. For the same compound, the FAK expression (FAK) was “reduction” and the “final miR-7-5p concentration at which viability was significantly reduced” value (melanoma cell lines) was 1 nM.
